Measured values published in ChEMBL document CHEMBL1201862, “PubChem BioAssay data set” (2004).
Active and inactive are the calls of the source.

Tests used:
[1] = biological target: Dual specificity protein kinase CLK1 (Homo sapiens, UniProt P49759); assay: inhibition of human CLK1 activity – biochemical, cherry-picked samples, selectivity assay for Dyrk1A inhibitor project, dose response (AID 588811)
Cytochrome P450 1A2 = biological target: T1, Cytochrome P450 1A2 (Homo sapiens, UniProt P05177);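 note: PubChem cytochrome P450 panel assay, CYP1A2 panel member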
T1 sequence (P05177 whole entry): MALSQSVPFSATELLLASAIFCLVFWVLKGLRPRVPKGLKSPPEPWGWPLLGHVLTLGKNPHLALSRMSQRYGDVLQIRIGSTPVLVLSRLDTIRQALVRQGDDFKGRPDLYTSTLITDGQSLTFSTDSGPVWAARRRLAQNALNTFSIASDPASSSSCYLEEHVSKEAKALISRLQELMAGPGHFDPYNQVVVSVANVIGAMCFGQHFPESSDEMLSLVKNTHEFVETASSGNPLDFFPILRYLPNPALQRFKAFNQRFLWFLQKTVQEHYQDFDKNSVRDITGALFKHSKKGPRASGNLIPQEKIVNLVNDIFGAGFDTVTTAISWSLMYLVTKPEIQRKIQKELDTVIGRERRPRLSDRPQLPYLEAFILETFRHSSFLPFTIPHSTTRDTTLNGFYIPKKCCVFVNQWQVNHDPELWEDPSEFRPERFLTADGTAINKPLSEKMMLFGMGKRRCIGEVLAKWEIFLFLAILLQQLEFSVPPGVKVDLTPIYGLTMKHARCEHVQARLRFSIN

Cytochrome P450 2C19 = Cytochrome P450 2C19 (Homo sapiens, UniProt P33261); assay: Cytochrome panel assay with activity outcomes. Panel member name: p450-cyp2c19 Compounds with AC50 equal or less than 10 uM are considered active; assay type: functional; settings: read-out: AC50
[2] = biological target: Voltage-gated inwardly rectifying potassium channel KCNH2 (Homo sapiens, UniProt Q12809); settings: Potency;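 note: confirmatory quantitative high-throughput screen measuring inhibition of hERG channel activity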
cells [3] = assay type: functional, cell-based
H4 = assay: Luminescence Cell-Based Dose Response HTS to Identify Activators of 5'UTR Stem-Loop Driven Prion Protein mRNA Translation in H4 Neuroglioblastoma Cells. [Related pubchem assays: 1829 (Project Summary), 1814 (Primary HTS)]; assay type: functional; settings: Homo sapiens
[4] = viability loss in HepG2 hepatoma cells – cell-based, ATP luminescence, cherry-pick, activator set 2, cytotoxicity control, dose response (AID 1053143); assay type: functional
HEK293 = assay: cells; assay type: functional, cell-based; settings: Homo sapiens
[5] = Luminescence Cell-Based Dose Confirmation HTS to Identify Activators of 5'UTR Stem-Loop Driven Alpha-Synuclein mRNA Translation in H4 Neuroglioblastoma Cells. [Related pubchem assays: 1829 (Project Summary), 1814 (Primary HTS)]; assay type: functional
[6] = Luminescence Cell-Based Dose Response HTS to Identify Activators of Luciferase Translation or Activity in H4 […] Cells. [Related pubchem assays: 1829 (Project Summary), 1814 (Primary HTS)]; assay type: functional
[7] = biological target: Nuclear receptor subfamily 0 group B member 1 (Homo sapiens, UniProt P51843); assay: Luminescence-based cell-based high throughput dose response assay for inhibitors of the orphan nuclear receptor subfamily 0, group B, member 1 (DAX1; NR0B1). [Related pubchem assays (depositor defined):AID504766, AID504790]; assay type: functional
cells [8] = assay type: functional, cell-based; remark: listed apart in the source
[9] = biological target: Acyl-homoserine lactone acylase PvdQ (Pseudomonas aeruginosa (strain LESB58), UniProt Q9I194); assay: PvdQ acylase enzyme activity blockers – biochemical, fluorescence, plate reader and imaging, cherry-picks, dose response (AID 493231)
HeLa = assay: toxicity to human HeLa cells – cell-based, 48 h, plate reader, cherry-picks, cytotoxicity control, dose response (AID 504942); assay type: functional
[10] = biological target: T2, Orexin/Hypocretin receptor type 1 (Homo sapiens, UniProt O43613); assay: (§1) Fluorescence-based cell-based high throughput dose response assay for antagonists of the orexin 1 receptor (OX1R; HCRTR1). [Related pubchem assays (depositor defined):AID434989, AID435008, AID463079, AID485270, AID492963, AID492964, AID492965, AID493232, AID504717, AID504718]; assay type: functional
[11] = (§2) Counterscreen for antagonists of the orexin 1 receptor (OX1R; HCRTR1): Fluorescence-based cell-based high throughput dose response assay to identify antagonists of the parental CHO cell line. [Related pubchem assays (depositor defined):AID434989, AID435008, AID463079, AID485270, AID492963, AID492964, AID492965, AID493232, AID504699, AID504701]; assay type: functional
[12] = biological target: T2, Orexin/Hypocretin receptor type 1; assay: as §1, with “Homogeneous Time Resolved Fluorescence (HTRF)-based” for “Fluorescence-based”; assay type: functional
Orexin receptor type 2 [13] = biological target: T3, Orexin receptor type 2 (Homo sapiens, UniProt O43614); assay: Counterscreen assay for antagonists of the orexin 1 receptor (OX1R; HCRTR1): Homogeneous Time Resolved Fluorescence (HTRF)-based cell-based dose response assay for antagonists of the orexin 2 receptor (OX2R; HCRTR2), run by assay provider.; assay type: functional
CHO-K1 = assay: as §2, with “Homogeneous time resolved fluorescence (HTRF)-based” for “Fluorescence-based”, “cell-based” for “cell-based high throughput”, “CHO-K1” for “CHO”; assay type: functional; settings: Cricetulus griseus;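 note: potency for inhibition of ATP-stimulated IP1 production as antagonists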
Orexin receptor type 2 [14] = biological target: T3, Orexin receptor type 2; assay: Counterscreen assay for antagonists of the orexin 1 receptor (OX1R; HCRTR1): Fluorescence-based cell-based dose response assay for antagonists of the orexin 2 receptor (OX2R; HCRTR2), run by assay provider.; assay type: functional

T2 sequence (O43613 whole entry): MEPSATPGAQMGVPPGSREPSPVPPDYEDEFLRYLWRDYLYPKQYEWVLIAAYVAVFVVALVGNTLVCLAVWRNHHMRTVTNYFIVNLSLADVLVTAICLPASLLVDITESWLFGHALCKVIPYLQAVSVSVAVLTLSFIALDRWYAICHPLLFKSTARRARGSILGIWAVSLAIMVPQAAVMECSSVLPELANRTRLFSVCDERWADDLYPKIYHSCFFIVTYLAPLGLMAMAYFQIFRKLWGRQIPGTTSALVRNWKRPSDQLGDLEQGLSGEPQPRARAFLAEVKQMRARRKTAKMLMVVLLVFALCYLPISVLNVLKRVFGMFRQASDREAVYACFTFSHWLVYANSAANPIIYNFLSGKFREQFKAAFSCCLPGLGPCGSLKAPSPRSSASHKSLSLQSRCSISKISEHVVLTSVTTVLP
T3 sequence (O43614 whole entry): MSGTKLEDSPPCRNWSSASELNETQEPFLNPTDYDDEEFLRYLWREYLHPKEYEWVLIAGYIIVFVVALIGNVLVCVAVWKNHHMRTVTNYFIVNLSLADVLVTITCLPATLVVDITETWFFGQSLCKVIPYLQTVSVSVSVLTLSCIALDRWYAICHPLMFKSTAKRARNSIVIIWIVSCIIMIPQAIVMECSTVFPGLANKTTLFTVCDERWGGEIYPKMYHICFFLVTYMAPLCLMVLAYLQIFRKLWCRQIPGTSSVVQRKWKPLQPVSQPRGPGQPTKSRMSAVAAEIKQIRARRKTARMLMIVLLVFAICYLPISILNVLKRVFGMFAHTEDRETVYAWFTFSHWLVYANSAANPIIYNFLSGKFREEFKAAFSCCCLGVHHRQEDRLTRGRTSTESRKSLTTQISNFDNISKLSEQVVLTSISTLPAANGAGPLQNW
Chain of Cytochrome P450 2C19 (P33261 whole entry): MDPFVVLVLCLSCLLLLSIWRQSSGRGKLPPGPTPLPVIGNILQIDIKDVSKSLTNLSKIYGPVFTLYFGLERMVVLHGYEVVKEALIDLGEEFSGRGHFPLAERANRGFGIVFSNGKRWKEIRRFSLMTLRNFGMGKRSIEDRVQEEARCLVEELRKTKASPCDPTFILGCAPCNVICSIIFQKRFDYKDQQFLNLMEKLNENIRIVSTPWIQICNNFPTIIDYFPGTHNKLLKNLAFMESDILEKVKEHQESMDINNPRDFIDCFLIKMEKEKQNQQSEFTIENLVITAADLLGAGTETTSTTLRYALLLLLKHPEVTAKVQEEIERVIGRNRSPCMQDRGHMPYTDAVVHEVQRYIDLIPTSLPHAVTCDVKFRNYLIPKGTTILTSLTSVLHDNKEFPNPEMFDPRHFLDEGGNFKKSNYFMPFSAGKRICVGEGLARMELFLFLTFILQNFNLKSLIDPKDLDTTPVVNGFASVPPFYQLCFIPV
Chain of Voltage-gated inwardly rectifying potassium channel KCNH2 (Q12809 whole entry): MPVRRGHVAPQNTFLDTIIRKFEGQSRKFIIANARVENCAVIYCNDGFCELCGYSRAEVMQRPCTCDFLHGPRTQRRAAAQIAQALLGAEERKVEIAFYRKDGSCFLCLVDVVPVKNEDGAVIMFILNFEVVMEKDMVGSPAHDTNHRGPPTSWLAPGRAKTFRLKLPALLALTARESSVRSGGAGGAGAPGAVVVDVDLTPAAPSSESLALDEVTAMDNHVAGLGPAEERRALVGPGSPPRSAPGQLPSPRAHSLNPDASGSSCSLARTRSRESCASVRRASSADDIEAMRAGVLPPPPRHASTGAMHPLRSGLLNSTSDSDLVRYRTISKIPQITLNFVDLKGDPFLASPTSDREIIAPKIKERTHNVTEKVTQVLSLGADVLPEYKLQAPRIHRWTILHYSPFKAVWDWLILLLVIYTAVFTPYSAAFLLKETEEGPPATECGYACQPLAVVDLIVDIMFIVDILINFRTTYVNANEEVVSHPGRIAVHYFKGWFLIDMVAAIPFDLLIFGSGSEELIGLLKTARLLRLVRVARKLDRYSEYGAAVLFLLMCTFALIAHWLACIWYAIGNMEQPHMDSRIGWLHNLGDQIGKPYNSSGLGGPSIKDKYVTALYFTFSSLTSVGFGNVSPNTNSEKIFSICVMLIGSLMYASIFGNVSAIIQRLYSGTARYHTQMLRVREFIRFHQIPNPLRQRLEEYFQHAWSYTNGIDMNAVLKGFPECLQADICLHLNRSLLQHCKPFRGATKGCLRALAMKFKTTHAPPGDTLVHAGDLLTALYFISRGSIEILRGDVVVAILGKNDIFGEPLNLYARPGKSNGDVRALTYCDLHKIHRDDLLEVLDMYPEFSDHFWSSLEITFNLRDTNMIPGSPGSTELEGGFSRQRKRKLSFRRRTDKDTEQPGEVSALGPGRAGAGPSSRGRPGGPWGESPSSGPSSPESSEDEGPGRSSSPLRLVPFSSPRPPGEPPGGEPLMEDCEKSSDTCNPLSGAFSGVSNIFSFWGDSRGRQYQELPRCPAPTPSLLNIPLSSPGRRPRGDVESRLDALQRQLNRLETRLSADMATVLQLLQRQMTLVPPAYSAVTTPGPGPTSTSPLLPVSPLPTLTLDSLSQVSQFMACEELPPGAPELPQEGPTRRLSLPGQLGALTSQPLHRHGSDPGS
Chain of Acyl-homoserine lactone acylase PvdQ (Q9I194 24-193 limits assumed): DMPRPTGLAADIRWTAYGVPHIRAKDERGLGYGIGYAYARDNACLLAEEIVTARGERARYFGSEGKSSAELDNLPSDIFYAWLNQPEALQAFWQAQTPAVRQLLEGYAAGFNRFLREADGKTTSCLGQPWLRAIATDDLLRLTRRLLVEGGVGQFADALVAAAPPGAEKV
Chain of Acyl-homoserine lactone acylase PvdQ (Q9I194 217-762 limits assumed): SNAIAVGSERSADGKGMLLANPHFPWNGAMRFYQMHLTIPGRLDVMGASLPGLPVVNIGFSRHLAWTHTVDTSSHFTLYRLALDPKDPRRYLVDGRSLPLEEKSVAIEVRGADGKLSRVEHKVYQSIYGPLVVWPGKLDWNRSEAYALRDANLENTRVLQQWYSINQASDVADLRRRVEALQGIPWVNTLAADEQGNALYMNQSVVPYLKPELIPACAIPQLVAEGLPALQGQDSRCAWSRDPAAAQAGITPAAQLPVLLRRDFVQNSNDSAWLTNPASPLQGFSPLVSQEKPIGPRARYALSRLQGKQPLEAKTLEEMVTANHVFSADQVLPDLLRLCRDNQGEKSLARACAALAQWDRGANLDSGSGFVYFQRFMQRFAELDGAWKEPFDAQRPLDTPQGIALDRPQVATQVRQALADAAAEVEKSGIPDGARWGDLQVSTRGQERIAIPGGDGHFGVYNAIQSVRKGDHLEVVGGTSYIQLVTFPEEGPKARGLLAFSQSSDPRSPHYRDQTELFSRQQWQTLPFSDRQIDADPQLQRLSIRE
Chain of Nuclear receptor subfamily 0 group B member 1 (P51843 whole entry): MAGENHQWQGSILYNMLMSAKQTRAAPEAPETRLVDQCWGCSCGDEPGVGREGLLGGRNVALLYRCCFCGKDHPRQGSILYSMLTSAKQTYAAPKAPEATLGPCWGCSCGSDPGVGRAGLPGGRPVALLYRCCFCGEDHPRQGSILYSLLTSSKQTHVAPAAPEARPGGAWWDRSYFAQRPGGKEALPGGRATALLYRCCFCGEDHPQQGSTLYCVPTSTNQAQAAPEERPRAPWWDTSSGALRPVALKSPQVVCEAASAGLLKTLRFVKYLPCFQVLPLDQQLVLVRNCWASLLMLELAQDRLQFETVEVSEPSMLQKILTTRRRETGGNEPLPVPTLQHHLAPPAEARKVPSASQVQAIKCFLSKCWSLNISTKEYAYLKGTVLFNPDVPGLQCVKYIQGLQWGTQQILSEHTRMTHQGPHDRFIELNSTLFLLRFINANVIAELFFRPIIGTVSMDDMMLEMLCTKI
Chain of Dual specificity protein kinase CLK1 (P49759 whole entry): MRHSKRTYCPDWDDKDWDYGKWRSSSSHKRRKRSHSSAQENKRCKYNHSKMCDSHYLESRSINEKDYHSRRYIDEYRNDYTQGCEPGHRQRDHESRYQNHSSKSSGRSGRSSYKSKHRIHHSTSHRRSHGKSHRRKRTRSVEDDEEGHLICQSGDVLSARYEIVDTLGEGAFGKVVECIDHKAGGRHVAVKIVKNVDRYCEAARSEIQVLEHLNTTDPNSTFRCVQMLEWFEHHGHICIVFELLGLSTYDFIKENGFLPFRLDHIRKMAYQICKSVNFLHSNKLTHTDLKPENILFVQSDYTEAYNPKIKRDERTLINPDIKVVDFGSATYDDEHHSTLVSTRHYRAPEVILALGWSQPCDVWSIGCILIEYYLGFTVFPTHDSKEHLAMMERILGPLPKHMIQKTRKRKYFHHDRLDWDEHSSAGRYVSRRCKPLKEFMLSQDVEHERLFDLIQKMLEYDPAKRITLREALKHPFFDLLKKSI

For `CN(C)S(=O)(=O)c1ccc(Cl)c(C(=O)Nc2cccc3ncccc23)c1`, the AC50 [1] was 1.84 µM (active).
In the case of `COc1ccc2c(c1)c(CC(=O)N1CCOCC1)c(C)n2C(=O)c1ccc(Cl)cc1` [INDOMETHACIN MORPHOLINYLAMIDE], the AC50 (Cytochrome P450 1A2) is reported as 25.1 µM (inconclusive), the AC50 (Cytochrome P450 2C19) is reported as 1.58 µM (inconclusive) and the AC50 [2] is reported as 35.5 µM (inconclusive).
In the case of `O=C(Nc1ccccc1O)c1ccc(NC(=O)C2CC2)cc1`, the EC50 (cells [3]) is reported as 11.2 µM (active), the EC50 (H4) is reported as 12.3 µM (active) and the AC50 [4] is reported as 18.8 µM (active). For the same molecule, the IC50 (HEK293) was 1.91 µM (active), the EC50 [5] was 10.5 µM (active) and the EC50 [6] was 17.3 µM (active). The IC50 [7] was > 67.6 µM (inactive) and the EC50 (cells [8]) was 51.3 µM (active).
With `O=C(Nc1ncc([N+](=O)[O-])s1)c1cccc([N+](=O)[O-])c1` the AC50 [9] was 10.3 µM (active) and the AC50 (HeLa) was 23.1 µM (active).
In the case of `CNc1oc(-c2cccc3ccccc23)nc1C#N`, the IC50 [10] is reported as 3.48 µM (active), the IC50 [11] is reported as > 49.7 µM (inactive) and the IC50 [12] is reported as 0.887 µM (active). For the same molecule, the IC50 (Orexin receptor type 2 [13]) was > 50 µM (inactive), the IC50 (CHO-K1) was > 66.2 µM (inactive) and the IC50 (Orexin receptor type 2 [14]) was > 88.8 µM (inactive).
